Data from patent US11708357B2, “Crystal form of pyrrolidinyl urea derivative and application thereof” (ZHANGZHOU PIEN TZE HUANG PHARMACEUTICAL CO., LTD., priority 2020, dated 2023).

Assays:
[1] = In vivo pharmacokinetic study in mice after single administration; parameters: species or system CD-1 mice; details: male, CD-1, mouse, plasma
Description: Male CD-1 mice were used as test animals, the concentration of the compound in blood was determined after single administration to evaluate the pharmacokinetic behavior.
CD-1 mice (male, 20-40 g, 6-9 weeks, Shanghai Sippr-Bk Laboratory Animal Co., Ltd.)
The pharmacokinetic characteristics of the test compound in rodents after intravenous injection and oral administration were tested by standard protocols, in the experiment, the test compound was prepared into a clear solution or homogeneous suspension, and administered to the mice by single intravenous injection and oral administration. In the intravenous injection group, the menstruum was a certain proportion of ethanol, Cremophor EL and physiological saline solution, the mixture was vortexed to prepare 1 mg/mL clear solution, then filtered with microporous membrane for later use; in the oral administration group, the menstruum was a certain proportion of methyl cellulose solution or certain proportion of methyl cellulose and Tween 80 aqueous solution, the test compound was mixed with the menstruum, and the mixture was vortexed to prepare 10 mg/mL clear or homogeneous suspension for later use. After 2 mg/kg intravenous administration or 100 mg/kg oral administration to the mice, a certain amount of whole blood samples were collected, centrifuged at 3200 g for 10 minutes, the supernatant was separated to obtain the plasma samples, and the samples were diluted multiple times with blank plasma according to actual needs. The plasma sample was added to acetonitrile solution containing the internal standard with a volume 20 times that of the plasma sample to precipitate proteins, and then centrifuged; the supernatant was separated, and water with a volume twice that of the supernatant was added to the supernatant, which was then centrifuged again; the supernatant was collected for analysis; LC-MS/MS analysis method was used to quantitatively analyze the blood drug concentration, and Phoenix WinNonlin software (Pharsight, USA) was used to calculate the pharmacokinetic parameters, such as peak concentration, time to peak concentration, clearance rate, half-life, area under the concentration-time curve, bioavailability, etc.
(§1) Among them, C0 is the initial concentration, T1/2 is the elimination half-life, Vdss is the steady-state apparent volume of distribution, Cl is the total clearance rate, AUC0-inf is the area under the plasma drug concentration-time curve from time 0 to infinity, Cmax is the peak concentration, Tmax is the time to peak concentration.

[2] = Metabolic stability in rat liver microsomes; type: in vitro ADME; details: pH 7.4, 0.5 mg protein/mL, read-out: Intrinsic clearance rate of liver microsomes, Rat
Description: The metabolic stability of the test compound in human and rat liver microsomes was tested.
Test compound (10 mM), Testosterone (reference compound, 10 mM), Diclofenac (reference compound, 10 mM) and Propafenone (reference compound, 10 mM).
1. 100 mM potassium phosphate buffer (pH 7.4).
1. Intermediate solution: 45 μL of DMSO (with 450 μL of 1:1 methanol/water) was used to dilute 5 μL of the sample for test compound or reference compound.
2. Working solution: 450 μL of 100 mM potassium phosphate buffer was used to dilute the intermediate solution.
10 μL of the working solution of the test compound or reference compound was added to all plates (T0, T5, T10, T20, T30, T60, and NCF60).
680 μL of liver microsome solution was added to each well of 96-well plates, then 80 μL was added to each well of the plates, and the plates were placed at 37° C. for pre-incubation for approximately 10 minutes.
10 μL of 100 mM potassium phosphate buffer was added to each well of the NCF60 plate.
After the pre-incubation, 90 μL NADPH regeneration system working solution was added to each well of the 96-well plates, and then 10 μL was added to each well of the plates to initiate the reaction.
Incubation for an appropriate time (such as 5, 10, 20, 30, and 60 minutes). […]
The half-life T1/2 and the intrinsic clearance rate by liver microsome Clint(mic) were calculated by the following formulas: Ct=Cij·e^−k^s^·i • when […]

[3] = In vivo pharmacokinetic study in rats after single administration; details: male, Sprague Dawley, rat, plasma, 2 mg/kg, 2 mpk intravenous injection
Description: Male SD rats were used as test animals, and the concentration of the compound in blood was determined after single administration to evaluate the pharmacokinetic behavior.
Sprague Dawley rats (male, 200-300 g, 7-9 weeks, Shanghai Charles River Laboratory Animal Co., Ltd.)
The pharmacokinetic characteristics of the test compound in rodents after intravenous injection and oral administration were tested by standard protocols, in the experiment, the test compound was prepared into a clear solution or homogeneous suspension, and administered to the rats by single intravenous injection and oral administration. In the intravenous injection group, the menstruum was a certain proportion of ethanol and physiological saline solution or a certain proportion of dimethyl sulfoxide in HP-β cyclodextrin solution (the pH was adjusted to 3-4), the mixture was vortexed and stirred to prepare 1 mg/mL clear solution, then filtered with microporous membrane for later use; in the oral administration group, the menstruum was a certain proportion of sodium carboxymethyl cellulose solution or a certain proportion of dimethyl sulfoxide in HP-β cyclodextrin solution (the pH was adjusted to about 4), after the test compound was mixed with the solvent, the mixture was vortexed and stirred to prepare 30 mg/mL homogeneous suspension for later use. After 2 mg/kg intravenous administration or 300 mg/kg oral administration to rats, a certain amount of whole blood samples were collected, centrifuged at 3000 g for 15 minutes, the supernatant was separated to obtain the plasma samples; then an acetonitrile solution containing internal standard with a volume 3 times that of the plasma sample was added to precipitate proteins, and then centrifuged; the supernatant was separated, and water with a volume twice that of the supernatant was added to the supernatant, which was then centrifuged again; the supernatant was collected for analysis; LC-MS/MS analysis method was used to quantitatively analyze the blood drug concentration, and Phoenix WinNonlin software (Pharsight, USA) was used to calculate the pharmacokinetic parameters, such as peak concentration, time to peak concentration, clearance rate, half-life, area under the concentration-time curve, bioavailability, etc.
as §1

[4] = 2 mg/kg, 2 mpk intravenous injection
[5] = 100 mg/kg, 100 mpk oral administration

Compound: COCCN1C[C@@H](n2ccc(F)c2)[C@H](NC(=O)Nc2c(C)c(-c3cnc(C4(F)COC4)nc3)nn2-c2ccccc2)C1 [Compound of formula (I)]
- AUC(0-inf) [1, 4]: 1.44 µM·h
- C0 [1, 4]: 2.72 µM
- clearance [1, 4]: 41.7 mL/min/kg
- half-life [1, 4]: 34.2 min
- Vd ([1]; 2 mg/kg, 2 mpk intravenous injection, read-out: Vdss): 1.54 L/kg
- AUC(0-inf) [1, 5]: 37.6 µM·h
- Cmax [1, 5]: 25.6 µM
- Tmax [1, 5]: 22.8 min
- bioavailability [1, 5]: 52.2%
- half-life [1, 5]: 55.2 min
- CLint scaled [2]: 24.9 mL/min/kg
- AUC(0-inf) [3]: 2.61 µM·h
- C0 [3]: 5.38 µM
- clearance [3]: 22.4 mL/min/kg
- half-life [3]: 33 min
- Vd ([3]; read-out: Vdss): 0.81 L/kg
